# Results: patent publication US11351218B2, “Composition for preventing or treating glioblastoma comprising Platycodon grandiflorum A. De Candolle, Scutellaria baicalensis, Phellodendron amurense Ruprecht or Rubus coreanus” (University-Industry Cooperation Group of Kyung Hee …, priority 2019, dated 2022)
# Legend:
# [1] = system: p-ULK1 (Ser757), p-S6K (Thr389), p-AKT (Ser473), p-JNK1, Beclin, ATG7; assay: Immunoblot of mTOR/MAPK and autophagosome assembly proteins in GBM cells; type: cell-based, human; conditions: PD 0-10 μM, 24 hours
# Procedure: FIGS. 10A to 10D show the results that PD-mediated autophagy inhibition is independent of mTOR and MAPK signaling pathways. FIGS. 10A to 10C show the results in which cells were treated with PD (0 μM, 0.5 μM, 1 μM, 5 μM, and 10 μM) for 24 hours. The immunoblot analyses for p-ULK1 (Ser757), ULK1, p-S6K (Thr389), p-AKT (Ser473), ERK2, P-ERK, p-JNK1, Beclin, and ATG7 were performed using lysates from GBMs. […] Total protein extracts were analyzed by immunoblot analyses for p-ERK, LC3B, and SQSTM1. GAPDH was used as an internal control.
# (§1) Cells treated with the concentrations and materials described in FIGS. 1-3B, 7, 8, 10, 13, 16, 18, and 20 were lysed in buffer containing 20 mM Tris-HCl (pH 7.5), 150 mM NaCl, 1 mM EDTA, 1 mM Na2EDTA, 1 mM EGTA, 1% NP-40, 1% sodium deoxycholate, 1 mM Na3VO4, 1 mM MPI, 1 mM PMSF, and PI cocktails for 15 to 20 minutes on ice. Cell lysates were separated by SDS-PAGE and transferred to nitrocellulose membranes. Immunodetection was performed with the following primary antibodies: rabbit anti-LC3B, rabbit anti-cathepsin B, rabbit-anti GAPDH (Cell Signaling Technology, Danvers, Mass.), mouse anti-SQSTM1/p62, and goat anti-cathepsin D (Santa CruzKPL, Gaithersburg, Md., USA) were incubated at room temperature for 1 hour. The protein bands were detected with ECL western Blotting Substrate (Thermo Fisher Scientific, Waltham, Mass., USA).
# Previous studies have shown that PD enhances autophagy via mTOR/MAPK pathway. In order to analyze the molecular mechanisms of PD-mediated autophagy in GBM cells, several regulatory components for autophagy were examined by immunoblot analysis. It is known that mTORC1 activation, measured by S6K phosphorylation, inhibits autophagy initiation by phosphorylating the ULK1 (Ser 757). […] Furthermore, as can be confirmed in FIG. 10A, altered phosphorylation of AKT, which is a positive regulator of mTORC1, was not observed in these cells. […] In order to assess a role of the ERK phosphorylation in autophagy regulation in PD-treated U373MG cells, PD98059, which is a inhibitor of MEK (i.e., an upstream activator of ERK), was added before PD treatment and the changes in LC3-II and p62 levels were examined by western blotting.
# LC3B and SQSTM1/p62 = assay: Immunoblot of LC3B and SQSTM1/p62 in GBM cells (U87MG and U373MG); type: cell-based, human
# Procedure: FIGS. 2A and 2B show the results that an extract of Platycodon grandiflorum (PG) increases the levels of LC3-II and p62. […] GAPDH was used as a loading control.
# FIGS. 3A to 3C show the results that PD inhibits autophagic flux in GBM cells. […] The expression of LC3B and SQSTM1 was confirmed by immunoblot analysis. […] GAPDH was used as a loading control.
# The human glioma cell lines, U87MG and U373MG, were cultured respectively in RPMI-1640 (Welgene) and DMEM (Welgene, Daegu, Korea) supplemented with 10% fetal bovine serum (FBS, JR Scientific) and 1% antibiotics (Ab, Welgene). All cultures were maintained at 37° C. in a humidified incubator containing 5% CO2.
# as §1
# U87MG and U373MG cells [2] = assay: Cholesterol cell-based detection assay (filipin III staining) in GBM cells; set-up: species or system human; conditions: PD 10 μM or U18666a 1 μM, 24 hours
# Procedure: (§2) FIGS. 15A and 15B show the results that PD promotes accumulation of cholesterol in lysosomes. Cells were treated with DMSO, PD (10 μM), or U18666a (1 μM) for 24 hours. […] Total cholesterol levels are expressed in cholesterol (μg) per protein (mg) of cell lysate and are shown as means±SD from two independent experiments.
# Cells grown on coverslips were treated with the materials. Then, the cells were fixed with 4% PFA at room temperature for 10 minutes. The solution of Filipin III (Cayman) was added for staining of […] cholesterol and the samples were incubated in a dark room for 30 minutes. The images were examined under a Zeiss laser confocal microscope.
# The present inventors concluded that PD inhibits the maturation of autophagosome into autolysosomes by inhibiting lysosomal degradation and an autophagosome-lysosome fusion in GBM cells. […] To examine whether the defect in the autophagosome-lysosome fusion by PD is due to altered intracellular cholesterol levels, the PD-treated GBM cells were stained with filipin-III, which is a fluorescent dye that binds to cholesterol. […] As can be confirmed in FIG. 14A, this filipin-III staining pattern is very similar to that found in GBM cells treated with U18666A, implying that PD blocks cholesterol release from lysosome and accumulates cholesterol in lysosomes.
# [3] = system: PARP, caspase-3, BCL-2 and BAX; assay: Immunoblot of apoptosis markers (PARP, caspase-3, BCL-2, BAX) in GBM cells; type: cell-based, human; conditions: PD, 24 hours
# Procedure: FIGS. 7A and 7B show the results that PD induces non-apoptotic cell death. […] GAPDH was used as a loading control. […] Data shown represent the means of quintuplicate measurements which were repeated three times. The results are presented as a percentage of control (means±SD).
# as §1
# Therefore, whether PD-mediated autophagy inhibition promotes apoptosis in GBM cells was examined by western blot analysis. Activation of caspase-3 and cleavage of its substrate, PARP, are hallmarks of apoptosis. […]
# U87MG and U373MG cells [4] = assay: Cholesterol measurement (total cholesterol assay kit) in GBM cells; type: cell-based, human; conditions: PD 10 μM or U18666a 1 μM, 24 hours
# Procedure: as §2
# Cells treated as described above were processed using a total cholesterol assay kit (STA384, Cell Biolabs) according to the manufacterer's instructions. Cholesterol esters and free cholesterol were quantified by homogenizing 10^6 cells extracted from a 200 μL mixture of chloroform: isopropanol: NP-40 (7:11:0.1). After centrifugation of the extract at 15,000× g for 10 minutes, the organic phase was collected and evaporated at 50° C. The extract was resuspended in 200 μL of a 1× cholesterol assay diluent prior to analysis. The colorimetric signal was analyzed using an ELISA reader (Versa Max, Molecular Devices, Sunnyvale, Calif., USA) at 540 nm. Cellular cholesterol results were reported as μg of cholesterol per mg of cell protein.
smiles,measurement,setting,value
"C[C@@H]1O[C@@H](O[C@H]2[C@H](OC(=O)[C@]34CCC(C)(C)C[C@H]3C3=CC[C@@H]5[C@@]6(C)C[C@H](O)[C@H](O[C@@H]7O[C@H](CO)[C@@H](O)[C@H](O)[C@H]7O)C(CO)(CO)[C@@H]6CC[C@@]5(C)[C@]3(C)C[C@H]4O)OC[C@H](O)[C@@H]2O)[C@H](O)[C@H](O)[C@H]1O[C@@H]1OC[C@@H](O)[C@H](O[C@@H]2OC[C@](O)(CO)[C@H]2O)[C@H]1O [PD, platycodin D]",altered phosphorylation of AKT,[1],not observed
same,phosphorylation levels of JNK vs control cells,[1],no significant difference
same,phosphorylation of S6K and ULK1,[1],no alteration
same,Beclin-1 and ATG7 protein levels,[1]; both cells,no significant changes
same,LC3B-II and p62 levels over time,"LC3B and SQSTM1/p62; 10 μM PD, 3 hours to 24 hours",time-dependent increases
same,LC3B-II and p62 levels,"LC3B and SQSTM1/p62; PD 0 μM to 10 μM, 24 hours",dose-dependent increases
same,concentration of maximum activity (LC3B-II and p62 levels),"LC3B and SQSTM1/p62; PD 0 μM to 10 μM, 24 hours",10 µM
same,cellular cholesterol distribution (filipin-III staining),U87MG and U373MG cells [2],induces cholesterol accumulation within intracellular vesicles
same,caspase-3 activation and PARP cleavage,[3],no significant induction
same,expressions of Bcl2 and BAX,[3],not changed
same,free cholesterol levels,U87MG and U373MG cells [4],significant increase
